Values of other authors in article PMC3352981 (Bioorganic & medicinal chemistry letters, 2012).

What was measured:
[1] = system: BoNT/A
[2] = system: BoNT/A; details: mouse

Row | Structure (SMILES) | potency (in words) [1] | in vivo activity [2]
1 | CC(C)(C)c1ccc(C=CC(=O)NO)cc1 [4-tert-butylcinnamyl hydroxamate] | dramatic loss of potency | –
2 | O=C(/C=C/c1ccc(Cl)cc1Cl)NO [Compound 1, 2,4-dichlorocinnamyl hydroxamic acid] | – | marginal in vivo activity
